According to patent US20240327364A1, “THERAPEUTIC TARGETING OF GPR68 TO INDUCE FERROPTOSIS” (University Of Maryland, Baltimore, priority 2023, published 2024):
Read-outs that look alike come from different tables or passages of the source.

What was measured:
[1] = system: DU 145; assay: Cell Titer-Glo viability, Prostate adenocarcinoma; assay type: cell-based; conditions: for CC50: Homo sapiens, read-out: LC50 (the source's name)
Description: (§1) OGM2 kills wide variety of cancer cell types. Cell sensitivity can be classified in to Very Sensitive (LC50<2 μM), Sensitive (LC50=2 to 10 μM), Mildly Sensitive (LC50>10 μM), and Refractory (no killing at 10 μM). The listed established cell were incubated with OGM2 at 2 μM or 10 μM for 72 hours under standard cell culture conditions, and relative cell number was assessed using Cell Titer-Glo Luminescent Cell Viability Assay (Promega™) following the manufacturer's instructions. Luminescence was determined using a Cytation 5 reader and Gen5 software package (BioTek™).
(§2) Cancer cells, which are very sensitive to killing by OGM2 (LCs <2 μM), with reported mRNA expression of GPR68 and the related proton sensing receptor GPR4. LC50's (concentrations causing 50% lethality) were determined using CellTiter-Glo (Promega™, G7570). Cells were plated in 12-well plates (CELLTREAT Scientific Products, 229112) in 1 ml of DMEM with high glucose, GlutaMAX, HEPES, or RPMI 1640 with Penicillin-Streptomycin (ThermoFisher™, 10564029, 11875119 and 15140122) and 10% FBS. Cells were incubated overnight at 37° C. in 5% CO2. Then 1 mL of fresh media was added with DMSO, OGM, or positive control (Erastin; APExBIO Technology, LLC, B1524) and cells incubated for 3 days. On the third day, all media was removed, cells were rinsed with 1×PBS, PBS was removed, and 200 μL of 1× Passive Lysis Buffer (Promega™, E1941) was added to each well. […]. Subsequently, 20 μL of lysate was added to 100 μL CellTiter-Glo™ reagent on a LUMITRAC 200 plate (Greiner™ bio-one, 82050-726). Plates were briefly spun down and read on a GloMax-Multi Detection System (Promega™).
(§3) The cells listed in the tables above were incubated with OGM2 at 2 μM or 10 μM for 72 hours under standard cell culture conditions, and relative cell number was assessed using Cell Titer-Glo Luminescent Cell Viability Assay (Promega™) following the manufacturer's instructions. Luminescence was determined using a Cytation 5 reader and Gen5 software package (BioTek™). RNA expression of GPR68 and GPR4 in the corresponding cancer cell lines are listed, according to the publicly available The Human Protein Atlas version 22.0 and Ensembl version 103.38 (see proteinatlas.org). The consensus normalized expression value (“nTPM”=normalize transcript per million) was calculated as the maximum nTPM value for each gene in the two data sources.

[2] = system: PC-3; assay: Cell Titer-Glo viability, Prostate adenocarcinoma; assay type: cell-based; conditions: for CC50: Homo sapiens, read-out: LC50 (the source's name)
Description: as §1, §2, §3

[3] = system: U-87 MG; assay: Cell Titer-Glo viability, Glioblastoma; assay type: cell-based; conditions: 72 hours
Description: as §1, §2, §3

[4] = system: U-138 MG; assay: Cell Titer-Glo viability, Glioblastoma; assay type: cell-based; conditions: 72 hours
Description: as §1, §2, §3

[5] = system: GL261Luc; assay: Cell Titer-Glo viability, Glioblastoma; assay type: cell-based
Description: as §1, §2, §3

[6] = system: KR-158-luc; assay: Cell Titer-Glo viability, Glioblastoma; assay type: cell-based
Description: as §1, §2, §3

[7] = molecular target: T1, IKK-epsilon (Homo sapiens, UniProt Q14164); assay: KinomeScan; assay type: binding; conditions: read-out: % Control
T1 construct: purchased DiscoveRx (Fremont, CA)

[8] = molecular target: T2, PIK3CA(H1047L) (Homo sapiens, UniProt P42336, H1047L); assay: KinomeScan; assay type: binding; conditions: read-out: % Control
T2 construct: purchased DiscoveRx (Fremont, CA)

[9] = molecular target: T3, RAF1 (Homo sapiens, UniProt P04049); assay: KinomeScan; assay type: binding; conditions: read-out: % Control
T3 construct: purchased DiscoveRx (Fremont, CA)

[10] = molecular target: T4, VEGFR2 (Homo sapiens, UniProt P35968); assay: KinomeScan; assay type: binding; conditions: read-out: % Control
T4 construct: purchased DiscoveRx
T4 sequence (P35968 20-1356): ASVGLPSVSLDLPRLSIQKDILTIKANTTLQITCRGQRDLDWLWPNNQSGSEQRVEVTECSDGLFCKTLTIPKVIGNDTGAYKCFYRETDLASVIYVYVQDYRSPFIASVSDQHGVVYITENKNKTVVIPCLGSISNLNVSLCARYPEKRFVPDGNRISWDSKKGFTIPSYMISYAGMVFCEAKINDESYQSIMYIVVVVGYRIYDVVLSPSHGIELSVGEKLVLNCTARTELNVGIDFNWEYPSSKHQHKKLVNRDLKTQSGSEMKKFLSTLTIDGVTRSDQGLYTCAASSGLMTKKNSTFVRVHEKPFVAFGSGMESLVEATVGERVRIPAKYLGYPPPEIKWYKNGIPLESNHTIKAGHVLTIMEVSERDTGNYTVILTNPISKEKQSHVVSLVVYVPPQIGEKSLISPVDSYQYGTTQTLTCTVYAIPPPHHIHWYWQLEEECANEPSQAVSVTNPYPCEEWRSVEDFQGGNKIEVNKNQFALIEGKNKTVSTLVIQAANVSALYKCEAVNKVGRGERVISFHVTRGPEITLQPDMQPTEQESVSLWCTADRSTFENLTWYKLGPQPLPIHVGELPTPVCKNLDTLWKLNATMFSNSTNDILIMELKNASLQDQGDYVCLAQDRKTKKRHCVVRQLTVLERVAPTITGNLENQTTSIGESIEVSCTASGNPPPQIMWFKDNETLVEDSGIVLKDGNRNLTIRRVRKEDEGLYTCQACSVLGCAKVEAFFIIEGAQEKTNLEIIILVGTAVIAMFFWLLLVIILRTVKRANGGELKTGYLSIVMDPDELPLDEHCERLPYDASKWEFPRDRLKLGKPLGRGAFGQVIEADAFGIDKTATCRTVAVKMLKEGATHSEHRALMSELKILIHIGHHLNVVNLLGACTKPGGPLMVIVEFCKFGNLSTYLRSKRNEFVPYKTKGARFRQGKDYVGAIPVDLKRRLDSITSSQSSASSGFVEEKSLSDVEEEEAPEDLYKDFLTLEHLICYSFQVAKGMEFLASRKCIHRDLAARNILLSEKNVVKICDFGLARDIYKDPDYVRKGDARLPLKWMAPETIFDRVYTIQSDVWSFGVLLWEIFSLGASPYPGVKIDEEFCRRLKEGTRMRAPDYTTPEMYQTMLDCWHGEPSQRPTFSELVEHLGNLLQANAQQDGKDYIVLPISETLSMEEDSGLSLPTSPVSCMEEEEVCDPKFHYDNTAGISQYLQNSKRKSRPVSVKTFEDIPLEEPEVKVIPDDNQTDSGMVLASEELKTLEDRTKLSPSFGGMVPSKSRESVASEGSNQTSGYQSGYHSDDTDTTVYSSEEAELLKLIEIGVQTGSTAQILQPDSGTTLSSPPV

[11] = molecular target: CLK4 (Homo sapiens, UniProt Q9HAZ1); assay: KinomeScan; assay type: binding; conditions: read-out: % Control
Chain of CLK4 (Q9HAZ1 whole entry): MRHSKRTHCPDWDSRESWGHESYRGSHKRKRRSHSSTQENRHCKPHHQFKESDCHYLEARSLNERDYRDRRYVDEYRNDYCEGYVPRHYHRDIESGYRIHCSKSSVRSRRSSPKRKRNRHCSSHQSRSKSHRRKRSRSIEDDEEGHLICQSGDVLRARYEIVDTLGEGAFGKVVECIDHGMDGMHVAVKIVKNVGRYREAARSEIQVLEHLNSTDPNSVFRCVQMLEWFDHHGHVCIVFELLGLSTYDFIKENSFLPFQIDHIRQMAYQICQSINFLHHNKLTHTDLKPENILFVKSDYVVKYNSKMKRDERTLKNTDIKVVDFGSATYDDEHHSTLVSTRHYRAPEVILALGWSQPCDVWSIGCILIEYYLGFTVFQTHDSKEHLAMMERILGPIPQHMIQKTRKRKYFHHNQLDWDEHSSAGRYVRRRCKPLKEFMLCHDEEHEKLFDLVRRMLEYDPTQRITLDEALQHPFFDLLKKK

[12] = molecular target: T5, PKMYT1 (Homo sapiens, UniProt Q99640); assay: KinomeScan; assay type: binding; conditions: read-out: % Control
T5 construct: purchased DiscoveRx (Fremont, CA)

[13] = molecular target: T6, FES (Homo sapiens, UniProt P07332); assay: KinomeScan; assay type: binding; conditions: read-out: % Control
T6 construct: purchased DiscoveRx (Fremont, CA)
T6 sequence (P07332 whole entry): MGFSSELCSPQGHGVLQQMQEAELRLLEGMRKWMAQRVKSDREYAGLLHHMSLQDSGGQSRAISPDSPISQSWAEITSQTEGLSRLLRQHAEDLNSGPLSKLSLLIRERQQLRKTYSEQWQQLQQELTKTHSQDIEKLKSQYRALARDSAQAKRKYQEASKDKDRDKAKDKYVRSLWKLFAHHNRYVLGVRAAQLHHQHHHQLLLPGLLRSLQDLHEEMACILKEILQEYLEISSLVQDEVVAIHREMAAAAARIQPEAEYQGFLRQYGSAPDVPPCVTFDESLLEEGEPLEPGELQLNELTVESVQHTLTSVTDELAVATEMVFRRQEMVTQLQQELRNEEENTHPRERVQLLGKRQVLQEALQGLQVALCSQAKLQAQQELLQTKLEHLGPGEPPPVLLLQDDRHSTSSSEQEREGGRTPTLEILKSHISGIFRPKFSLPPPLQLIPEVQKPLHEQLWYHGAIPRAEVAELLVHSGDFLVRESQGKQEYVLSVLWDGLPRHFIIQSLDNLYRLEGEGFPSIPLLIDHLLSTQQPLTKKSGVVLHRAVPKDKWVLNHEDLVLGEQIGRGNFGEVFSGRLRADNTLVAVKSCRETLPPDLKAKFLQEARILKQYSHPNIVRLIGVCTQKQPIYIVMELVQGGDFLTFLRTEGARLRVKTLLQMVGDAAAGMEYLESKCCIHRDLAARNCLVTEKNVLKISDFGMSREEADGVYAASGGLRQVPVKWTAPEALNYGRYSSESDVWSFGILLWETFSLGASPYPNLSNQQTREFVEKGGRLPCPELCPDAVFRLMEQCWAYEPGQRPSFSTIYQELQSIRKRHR

[14] = molecular target: T7, PIK3CA(H1047Y) (Homo sapiens, UniProt P42336, H1047Y); assay: KinomeScan; assay type: binding; conditions: read-out: % Control
T7 construct: purchased DiscoveRx (Fremont, CA)

[15] = molecular target: T8, NK3 (Homo sapiens, UniProt P29371); assay: GPCR Profiler; assay type: cell-based
T8 construct: host or cells: Chem-1 cells expressing Gα15
T8 sequence (P29371 whole entry): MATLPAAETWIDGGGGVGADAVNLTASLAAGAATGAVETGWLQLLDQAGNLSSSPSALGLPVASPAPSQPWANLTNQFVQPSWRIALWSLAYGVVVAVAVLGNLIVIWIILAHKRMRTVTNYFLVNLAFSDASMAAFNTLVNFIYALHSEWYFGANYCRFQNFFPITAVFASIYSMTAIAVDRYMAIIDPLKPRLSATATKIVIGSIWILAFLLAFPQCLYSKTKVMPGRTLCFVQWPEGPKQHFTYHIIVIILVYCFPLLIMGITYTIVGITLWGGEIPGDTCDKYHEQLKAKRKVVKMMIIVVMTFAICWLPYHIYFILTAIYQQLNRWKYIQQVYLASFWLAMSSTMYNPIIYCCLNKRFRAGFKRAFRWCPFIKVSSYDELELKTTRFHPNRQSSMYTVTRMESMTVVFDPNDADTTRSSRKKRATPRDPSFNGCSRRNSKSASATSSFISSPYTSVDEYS

[16] = molecular target: T9, PK2 (Homo sapiens, UniProt Q8NFJ6); assay: GPCR Profiler; assay type: cell-based
T9 construct: host or cells: Chem-1 cells with Gα15
T9 sequence (Q8NFJ6 whole entry): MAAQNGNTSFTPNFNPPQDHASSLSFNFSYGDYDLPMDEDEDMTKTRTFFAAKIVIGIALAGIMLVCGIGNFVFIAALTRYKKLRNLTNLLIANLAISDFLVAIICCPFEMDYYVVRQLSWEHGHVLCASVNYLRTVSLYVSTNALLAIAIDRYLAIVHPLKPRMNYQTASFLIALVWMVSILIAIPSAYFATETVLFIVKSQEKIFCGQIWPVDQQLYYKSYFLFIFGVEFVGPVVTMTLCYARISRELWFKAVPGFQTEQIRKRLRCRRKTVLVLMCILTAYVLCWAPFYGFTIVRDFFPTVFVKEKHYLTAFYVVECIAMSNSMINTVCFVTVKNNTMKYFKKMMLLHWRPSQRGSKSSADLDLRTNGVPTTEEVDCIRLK

[17] = molecular target: T10, MEK5 (Homo sapiens, UniProt Q13163); assay: KinomeScan; assay type: binding; conditions: read-out: % Control
T10 construct: purchased DiscoveRx (Fremont, CA)

[18] = molecular target: T11, PRKG2 (Homo sapiens, UniProt Q13237); assay: KinomeScan; assay type: binding; conditions: read-out: % Control
T11 construct: purchased DiscoveRx (Fremont, CA)

[19] = molecular target: CSK (Homo sapiens, UniProt P41240); assay: KinomeScan; assay type: binding; conditions: read-out: % Control
Chain of CSK (P41240 whole entry): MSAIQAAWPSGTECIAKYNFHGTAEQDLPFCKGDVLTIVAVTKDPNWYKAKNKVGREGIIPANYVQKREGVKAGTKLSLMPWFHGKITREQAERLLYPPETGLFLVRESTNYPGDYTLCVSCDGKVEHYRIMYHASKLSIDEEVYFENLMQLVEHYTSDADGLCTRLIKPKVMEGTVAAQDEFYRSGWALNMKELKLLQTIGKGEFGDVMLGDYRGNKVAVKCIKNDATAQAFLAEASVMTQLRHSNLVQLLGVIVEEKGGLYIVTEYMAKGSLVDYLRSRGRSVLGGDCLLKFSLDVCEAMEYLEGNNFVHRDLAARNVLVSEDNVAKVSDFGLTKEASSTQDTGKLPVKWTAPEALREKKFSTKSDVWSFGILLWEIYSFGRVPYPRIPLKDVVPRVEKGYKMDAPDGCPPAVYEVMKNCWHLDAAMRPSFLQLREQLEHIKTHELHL

[20] = molecular target: T12, NTR1 (Homo sapiens, UniProt P30989); assay: GPCR Profiler; assay type: cell-based
T12 construct: host or cells: Chem-1 cells expressing Gα15
T12 sequence (P30989 whole entry, species assumed): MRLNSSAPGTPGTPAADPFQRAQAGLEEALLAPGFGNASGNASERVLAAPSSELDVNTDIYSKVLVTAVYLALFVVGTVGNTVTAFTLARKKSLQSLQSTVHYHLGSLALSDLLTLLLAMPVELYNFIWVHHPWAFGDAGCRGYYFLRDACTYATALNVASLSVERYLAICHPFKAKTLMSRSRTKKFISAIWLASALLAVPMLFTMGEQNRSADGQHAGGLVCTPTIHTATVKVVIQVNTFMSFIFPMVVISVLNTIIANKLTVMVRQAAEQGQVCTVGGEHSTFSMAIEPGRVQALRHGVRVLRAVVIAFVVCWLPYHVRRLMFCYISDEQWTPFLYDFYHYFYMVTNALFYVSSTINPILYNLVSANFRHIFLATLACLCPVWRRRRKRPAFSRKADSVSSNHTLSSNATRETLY

[21] = molecular target: T13, CAMK2D (Homo sapiens, UniProt Q13557); assay: KinomeScan; assay type: binding; conditions: read-out: % Control
T13 construct: purchased DiscoveRx (KinomeScan service)
T13 sequence (Q13557 whole entry): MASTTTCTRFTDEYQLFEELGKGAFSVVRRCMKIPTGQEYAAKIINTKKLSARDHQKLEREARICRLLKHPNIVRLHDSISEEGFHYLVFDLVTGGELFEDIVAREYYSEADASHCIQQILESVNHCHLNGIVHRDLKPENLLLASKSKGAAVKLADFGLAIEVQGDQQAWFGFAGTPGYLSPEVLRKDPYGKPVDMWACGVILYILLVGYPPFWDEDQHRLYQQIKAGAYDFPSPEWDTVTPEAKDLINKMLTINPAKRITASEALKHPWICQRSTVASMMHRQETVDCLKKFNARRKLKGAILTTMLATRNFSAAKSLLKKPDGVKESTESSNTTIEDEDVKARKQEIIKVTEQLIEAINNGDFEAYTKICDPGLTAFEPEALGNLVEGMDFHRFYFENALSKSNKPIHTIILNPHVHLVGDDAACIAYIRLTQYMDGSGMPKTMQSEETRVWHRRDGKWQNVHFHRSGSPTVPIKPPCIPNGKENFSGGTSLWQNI

[22] = molecular target: T14, TGFBR1 (Homo sapiens, UniProt P36897); assay: KinomeScan; assay type: binding; conditions: read-out: % Control
T14 construct: purchased DiscoveRx (Fremont, CA)

CCc1ccc2c(c1)C1(NN=C(c3ccccc3)S1)C(=O)N2 (centres unmarked) [OGM2]
% Survival 2 μM OGM ([1]; 72 hours): 44.2%
% Survival 10 μM OGM ([1]; 72 hours): 22.2%
% Survival 2 μM OGM ([1]; DU 145 cells, 2 μM, 72 hours, Cell Titer-Glo): 44.2%
% Survival 10 μM OGM ([1]; DU 145 cells, 10 μM, 72 hours, Cell Titer-Glo): 22.2%
CC50 ([1]; DU-145, 72 hours): < 2000 nM
CC50 ([1]; DU 145 cells, concentration causing 50% lethality): < 2000 nM
Class [2]: Mildly
% Survival 2 μM OGM ([2]; 72 hours): 101.3%
% Survival 10 μM OGM ([2]; 72 hours): 74.5%
CC50 ([2]; PC-3, 72 hours): > 10000 nM
CC50 ([2]; PC-3 cells, concentration causing 50% lethality): > 10000 nM
% Survival 2 μM OGM ([2]; PC-3 cells, 2 μM, 72 hours, Cell Titer-Glo): 101.3%
% Survival 10 μM OGM ([2]; PC-3 cells, 10 μM, 72 hours, Cell Titer-Glo): 74.5%
Class ([2]; Table 13): Low
% Survival 2 μM OGM [3]: 21.3%
% Survival 10 μM OGM [3]: 10.1%
CC50 ([3]; Homo sapiens, U-87 MG, read-out: LC50 (the source's name)): < 2000 nM
% Survival 2 μM OGM [4]: 40.3%
% Survival 10 μM OGM [4]: 35.0%
CC50 ([4]; Homo sapiens, U138-MG, read-out: LC50 (the source's name)): < 2000 nM
Class [5]: Very Sensitive (Very Sensitive (LC50<2 μM))
% Survival 2 μM OGM ([5]; 72 hours): 1.8%
% Survival 10 μM OGM ([5]; 72 hours): 0.1%
CC50 ([5]; Mus musculus, GL261-Luc, 72 hours, read-out: LC50 (the source's name)): < 2000 nM
Class [6]: Very Sensitive (Very Sensitive (LC50<2 μM))
% Survival 2 μM OGM ([6]; 72 hours): 11.4%
% Survival 10 μM OGM ([6]; 72 hours): 4.7%
CC50 ([6]; Mus musculus, 72 hours, read-out: LC50 (the source's name)): < 2000 nM

CCc1ccc2c(c1)C1(NN=C(c3cccc4ccccc34)S1)C(=O)N2 (centres unmarked) [OGM1, 5-ethyl-5′-naphthalen-1-ylspiro[1H-indole-3,2′-3H-1,3,4-thiadiazole]-2-one]
remaining binding at 10 µM [7]: 100%
remaining binding at 10 µM [8]: 100%
remaining binding at 10 µM [9]: 100%
remaining binding at 10 µM [10]: 100%
remaining binding at 10 µM [11]: 88%
remaining binding at 10 µM [12]: 78%
remaining binding at 10 µM [13]: 100%
remaining binding at 10 µM [14]: 59%
Antagonism ([15]; 10 uM): −3
Agonism ([15]; 12.5 uM): 0.5
Antagonism ([16]; 10 uM): 7.2
Agonism ([16]; 12.5 uM): −0.1
remaining binding at 10 µM [17]: 92%
remaining binding at 10 µM [18]: 91%
remaining binding at 10 µM [19]: 83%
Antagonism ([20]; 10 uM): 1.6
Agonism ([20]; 12.5 uM): 1
remaining binding at 10 µM [21]: 91%
remaining binding at 10 µM [22]: 100%
